# Test system: dyslipidemic non-diabetic patients
# Experiment: Hypolipidemic effect of M16ββ in dyslipidemic non-diabetic patients
# Format: in vivo, human
# Settings: p.o. 200 mg/day to 800 mg/day
# Description: Eight dyslipidemic non-diabetic patients were subjected to 4-5 weeks maintenance period on placebo followed by a period of 3-5 months of treatment p.o. with increasing M16ββ doses ranging from 200 mg/day to 800 mg/day.
compound,measurement,setting,value
"CC(C)(CCCCCCCCCCC(C)(C)CC(=O)O)CC(=O)O [M16ββ, 3,3,14,14-tetramethylhexadecane-1,16-dioic acid]",time into treatment at which hypolipidemic effect was observed,,less than 1 month
same,Plasma LDL-C,3-5 months,remained unaffected
same,decrease in plasma triglycerides (mean),3-5 months,55%
same,increase in HDL-C,3-5 months,13%
same,plasma fibrinogen,3-5 months,decrease
same,tolerability,3-5 months,well tolerated in all dosages
